Laboratory results as given in ChEMBL document CHEMBL1129054, “Conformationally constrained analogues of diacylglycerol. 13. Protein kinase C ligands based on templates derived from 2,3-dideoxy-L-erythro(threo)-hexono-1,4-lactone and 2-deoxyapiolactone” (J Med Chem, 1996).

These molecules were tested against Protein kinase C alpha type (Homo sapiens, UniProt P17252) (assay: Displacement of [3H-20] phorbol 12,13-dibutyrate(PDBU) from recombinant Protein kinase C alpha).

Row | SMILES | Ki
1 | CCCCCCCCCCCCCCOC(=O)C[C@@]1(CO)COC(=O)C1 | 16.9 µM
2 | CCCCCCCCCCCCCC(=O)O[C@@H](CO)[C@H]1CCC(=O)O1 | 28 µM
3 | CCCCCCCCCCCCCC(=O)O[C@@H](CO)[C@@H]1CCC(=O)O1 | 1.07 µM

Results, then the molecule that gave them:

Row | Ki | SMILES
4 | 10.4 µM | CCCCCCCCCCCCCCOC(=O)C[C@]1(CCO)COC(=O)C1
5 | 18.4 µM | CCCCCCCCCCCCCCOC(=O)C[C@@]1(CCO)COC(=O)C1
6 | 24.1 µM | CCCCCCCCCCCCCCOC(=O)CC1(CCO)COC(=O)C1 (single isomer, unassigned)
